According to patent US8343998B2, “Triazolothiadiazole inhibitor of c-Met protein kinase” (Vertex Pharmaceuticals Incorporated, priority 2008, dated 2013):
≈ marks a conversion by molar mass, not a printed value. Where “and” joins values, the source holds several entries; their conditions need not be identical. Equal values may be shown once. Read-outs that look alike come from different tables or passages of the source.

How the values were obtained:
[1] = Solubility of compound 1 crystalline free base in different solvents, by HPLC; type: physicochemical; details: thermodynamic from solid, crystalline free base slurry, room temperature, 4 day solution, read-out: Conc. FB (solubility)
Method: About 10 mg of compound 1, crystalline free base (FB), was loaded into a vial with a magnetic stir bar. About 150 μL of solvent were added to each vial. If compound 1 dissolved completely, more solid was added to the vial and stirring of the resulting slurry was continued at room temperature. The 4 day solution was filtered off using centrifuge filters and diluted in methanol to obtain solubility data by HPLC analysis. X-ray diffraction data of the crystals in the slurry were collected after 4 and 14 days.

c-Met = biological target: T1, c-Met (Homo sapiens, UniProt P08581); assay: Inhibition of c-Met activity in Snu5 gastric carcinoma cells (Snu5-AP1-Luc-Pest luciferase signal); type: cell-based; details: 6 hours, luciferase luminescence
T1 construct: is a human gastric carcinoma known to overexpress c-Met, which is constitutively active; host or cells: Snu5-AP1-Luc-Pest (Snu5 transduced with an AP1-luciferase-PEST reporter)
Excerpt: Compound 1 was also screened for their ability to inhibit the Luciferase-induced signal in an engineered Snu5 cell line. Snu5 [obtained from American Type Culture Collection (Catalog number CRL-5973)] is a human gastric carcinoma known to overexpress c-Met, which is constitutively active. […] The constitutively active c-Met activates cellular pathways (principally MAP kinase), resulting in AP-1-induced transcription of luciferase-PEST and translation into the final product, the activity of which is quantifiable as a chemiluminescent readout upon the addition of luciferin (Steady-Glo from Promega.). Residual luminescence is strongly correlated to the inhibition of c-Met. A stable cell line was obtained by selecting the new cell line (Snu5-AP1-Luc-Pest) with puromycin. The cells were grown in complete media [Iscove's media (Invitrogen) containing 10% fetal bovine serum (FBS, Hyclone) and penicillin/gentamycin (Invitrogen)]. Compounds of the invention were dissolved in DMSO to make 10 mM initial stock solutions. Serial dilutions in DMSO were then made and transferred to complete medium to make a 10× solution. The Snu5-AP1-Luc-Pest cells were counted and diluted to 200,000-cells/mL solution. […] The plate was read on a 1450 Microbeta Liquid Scintillation and Luminescence Counter (Perkin-Elmer). The IC50 was calculated using a 4-parameter fit using the graphing software Prism (GraphPad).

hERG = biological target: T2, hERG (Homo sapiens, UniProt Q12809); assay: hERG inhibition assay, whole cell recording in HEK293 cells expressing hERG; type: cell-based; details: hERG current, peak tail current
T2 construct: host or cells: HEK293
Method: Peak tail current was measured during the 2 second step to −50 mV.

CYP1A2 = biological target: T3, CYP1A2 (Homo sapiens, UniProt P05177); assay: Stability in human recombinant CYP isoform; type: in vitro ADME; details: 120 minutes, 50 pmoles CYP/mL, NADPH, two separate studies (two lines)
T3 construct: host or cells: baculovirus-infected insect cells
T3 sequence (P05177 1-516): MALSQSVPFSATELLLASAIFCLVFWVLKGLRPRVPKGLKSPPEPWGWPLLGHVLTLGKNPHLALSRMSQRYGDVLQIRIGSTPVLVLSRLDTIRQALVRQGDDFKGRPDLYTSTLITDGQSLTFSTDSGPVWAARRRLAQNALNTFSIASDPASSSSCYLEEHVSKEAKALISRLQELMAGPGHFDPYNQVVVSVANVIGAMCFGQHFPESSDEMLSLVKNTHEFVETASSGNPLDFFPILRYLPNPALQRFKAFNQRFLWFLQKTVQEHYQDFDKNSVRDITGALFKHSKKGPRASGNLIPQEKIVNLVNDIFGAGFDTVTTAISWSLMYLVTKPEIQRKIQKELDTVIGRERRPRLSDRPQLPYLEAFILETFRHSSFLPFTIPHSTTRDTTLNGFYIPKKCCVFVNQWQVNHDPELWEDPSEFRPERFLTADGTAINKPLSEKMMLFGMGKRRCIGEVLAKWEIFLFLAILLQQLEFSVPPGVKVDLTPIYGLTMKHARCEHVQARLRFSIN
Method: (§1) The stability of compound 1 was evaluated in cDNA Baculovirus-insect cell-expressed human cytochrome P450 (CYP) isoforms CYP1A2, CYP2B6, CYP2C9, CYP2C19, CYP2D6, CYP2E1, and CYP3A4. Accordingly, the human recombinant cytochrome P450 isoforms at a final concentration of 50 pmoles of CYP/mL were incubated in phosphate buffer (pH 7.4) with 2.0 mM NADPH and compound 1 at compound concentrations of 1 μM and 10 μM. Sampling was conducted at 0 and 120 minutes and the amount of compound remaining was evaluated by LC/MS/MS analysis.

CYP2B6 = biological target: T4, CYP2B6 (Homo sapiens, UniProt P20813); assay: Stability in human recombinant CYP isoform; type: in vitro ADME; details: 120 minutes, 50 pmoles CYP/mL, NADPH, two separate studies (two lines)
T4 construct: host or cells: baculovirus-infected insect cells
T4 sequence (P20813 1-491): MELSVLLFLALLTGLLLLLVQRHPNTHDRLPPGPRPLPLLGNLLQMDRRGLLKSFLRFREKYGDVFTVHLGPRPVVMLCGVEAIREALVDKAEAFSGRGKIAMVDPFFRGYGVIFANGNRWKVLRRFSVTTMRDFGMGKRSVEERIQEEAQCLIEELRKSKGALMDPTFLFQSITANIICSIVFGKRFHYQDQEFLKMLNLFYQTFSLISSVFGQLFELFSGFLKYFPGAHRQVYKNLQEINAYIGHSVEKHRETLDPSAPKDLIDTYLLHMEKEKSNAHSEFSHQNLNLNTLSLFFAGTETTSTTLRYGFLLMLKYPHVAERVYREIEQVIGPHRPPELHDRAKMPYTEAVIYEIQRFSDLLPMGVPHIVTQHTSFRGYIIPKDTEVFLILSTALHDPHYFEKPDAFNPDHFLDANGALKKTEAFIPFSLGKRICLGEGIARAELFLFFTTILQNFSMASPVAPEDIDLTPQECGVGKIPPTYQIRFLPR
Method: as §1

CYP2C19 = biological target: T5, CYP2C19 (Homo sapiens, UniProt P33261); assay: Stability in human recombinant CYP isoform; type: in vitro ADME
T5 construct: host or cells: baculovirus-infected insect cells
Method: as §1

CYP2C9 = biological target: T6, CYP2C9 (Homo sapiens, UniProt P11712); assay: Stability in human recombinant CYP isoform; type: in vitro ADME; details: 120 minutes, 50 pmoles CYP/mL, NADPH, two separate studies (two lines)
T6 construct: host or cells: baculovirus-infected insect cells
Method: as §1

CYP2D6 = biological target: T7, CYP2D6 (Homo sapiens, UniProt P10635); assay: Stability in human recombinant CYP isoform; type: in vitro ADME; details: 120 minutes, 50 pmoles CYP/mL, NADPH, two separate studies (two lines)
T7 construct: host or cells: baculovirus-infected insect cells
Method: as §1

CYP2E1 = biological target: T8, CYP2E1 (Homo sapiens, UniProt P05181); assay: Stability in human recombinant CYP isoform; type: in vitro ADME; details: 120 minutes, 50 pmoles CYP/mL, NADPH, two separate studies (two lines)
T8 construct: host or cells: baculovirus-infected insect cells
Method: as §1

CYP3A4 = biological target: T9, CYP3A4 (Homo sapiens, UniProt P08684); assay: Stability in human recombinant CYP isoform; type: in vitro ADME
T9 construct: host or cells: baculovirus-infected insect cells
Method: as §1

[2] = compound at 10 μM, 120 minutes, 50 pmoles CYP/mL, NADPH, two separate studies (two lines)

T5 sequence (P33261 whole entry, canonical isoform): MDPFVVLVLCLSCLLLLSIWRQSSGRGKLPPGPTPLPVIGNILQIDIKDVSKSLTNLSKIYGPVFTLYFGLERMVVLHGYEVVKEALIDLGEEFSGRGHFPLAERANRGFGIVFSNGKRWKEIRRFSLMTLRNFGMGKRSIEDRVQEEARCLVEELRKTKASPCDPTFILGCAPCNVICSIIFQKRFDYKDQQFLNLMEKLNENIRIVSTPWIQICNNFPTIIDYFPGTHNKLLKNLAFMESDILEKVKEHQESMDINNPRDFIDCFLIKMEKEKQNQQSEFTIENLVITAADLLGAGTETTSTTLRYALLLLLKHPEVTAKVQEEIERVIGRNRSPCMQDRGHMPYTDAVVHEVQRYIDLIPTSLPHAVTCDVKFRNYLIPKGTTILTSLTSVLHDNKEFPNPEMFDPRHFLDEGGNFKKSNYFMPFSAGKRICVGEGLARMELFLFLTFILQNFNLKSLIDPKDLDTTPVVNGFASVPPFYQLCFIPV
T6 sequence (P11712 whole entry, canonical isoform): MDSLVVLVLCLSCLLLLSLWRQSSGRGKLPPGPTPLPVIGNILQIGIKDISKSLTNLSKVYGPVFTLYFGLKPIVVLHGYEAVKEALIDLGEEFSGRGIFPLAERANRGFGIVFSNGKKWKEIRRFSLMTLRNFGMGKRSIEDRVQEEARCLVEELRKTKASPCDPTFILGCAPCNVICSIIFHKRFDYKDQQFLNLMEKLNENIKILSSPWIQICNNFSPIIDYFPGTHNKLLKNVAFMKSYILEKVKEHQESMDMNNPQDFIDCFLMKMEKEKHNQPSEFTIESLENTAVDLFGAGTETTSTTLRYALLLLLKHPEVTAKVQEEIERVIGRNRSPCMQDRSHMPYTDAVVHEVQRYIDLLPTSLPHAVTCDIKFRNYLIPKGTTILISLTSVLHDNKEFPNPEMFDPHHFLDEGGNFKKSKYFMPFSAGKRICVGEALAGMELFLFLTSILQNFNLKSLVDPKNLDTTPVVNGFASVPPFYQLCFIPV
T7 sequence (P10635 whole entry, canonical isoform): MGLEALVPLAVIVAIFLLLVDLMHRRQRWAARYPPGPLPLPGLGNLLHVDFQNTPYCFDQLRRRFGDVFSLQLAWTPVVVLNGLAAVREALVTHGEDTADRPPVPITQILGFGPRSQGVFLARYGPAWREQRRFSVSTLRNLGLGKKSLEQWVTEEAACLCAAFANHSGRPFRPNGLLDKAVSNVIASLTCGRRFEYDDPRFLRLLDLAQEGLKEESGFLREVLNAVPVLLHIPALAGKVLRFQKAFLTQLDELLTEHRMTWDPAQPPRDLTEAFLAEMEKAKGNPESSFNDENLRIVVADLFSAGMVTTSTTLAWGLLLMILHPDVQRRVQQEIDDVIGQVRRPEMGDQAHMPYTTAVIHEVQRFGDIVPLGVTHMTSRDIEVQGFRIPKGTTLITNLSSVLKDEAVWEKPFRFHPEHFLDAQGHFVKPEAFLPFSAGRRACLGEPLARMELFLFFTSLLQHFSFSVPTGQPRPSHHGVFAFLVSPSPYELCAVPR
T9 sequence (P08684 whole entry, canonical isoform): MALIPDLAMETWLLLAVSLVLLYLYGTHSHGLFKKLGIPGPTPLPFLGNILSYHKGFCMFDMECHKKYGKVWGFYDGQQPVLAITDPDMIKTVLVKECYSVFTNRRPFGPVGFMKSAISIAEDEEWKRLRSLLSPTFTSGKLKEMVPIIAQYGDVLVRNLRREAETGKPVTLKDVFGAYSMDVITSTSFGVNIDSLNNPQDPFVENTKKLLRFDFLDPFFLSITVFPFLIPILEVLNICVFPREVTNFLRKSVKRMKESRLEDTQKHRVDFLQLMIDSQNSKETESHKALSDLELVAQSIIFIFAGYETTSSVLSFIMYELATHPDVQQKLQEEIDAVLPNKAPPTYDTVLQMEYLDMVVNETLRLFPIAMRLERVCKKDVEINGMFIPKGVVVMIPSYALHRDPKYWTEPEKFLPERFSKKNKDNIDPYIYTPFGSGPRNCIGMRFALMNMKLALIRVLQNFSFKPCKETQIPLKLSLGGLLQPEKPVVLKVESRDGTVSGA
T8 sequence (P05181 whole entry, canonical isoform): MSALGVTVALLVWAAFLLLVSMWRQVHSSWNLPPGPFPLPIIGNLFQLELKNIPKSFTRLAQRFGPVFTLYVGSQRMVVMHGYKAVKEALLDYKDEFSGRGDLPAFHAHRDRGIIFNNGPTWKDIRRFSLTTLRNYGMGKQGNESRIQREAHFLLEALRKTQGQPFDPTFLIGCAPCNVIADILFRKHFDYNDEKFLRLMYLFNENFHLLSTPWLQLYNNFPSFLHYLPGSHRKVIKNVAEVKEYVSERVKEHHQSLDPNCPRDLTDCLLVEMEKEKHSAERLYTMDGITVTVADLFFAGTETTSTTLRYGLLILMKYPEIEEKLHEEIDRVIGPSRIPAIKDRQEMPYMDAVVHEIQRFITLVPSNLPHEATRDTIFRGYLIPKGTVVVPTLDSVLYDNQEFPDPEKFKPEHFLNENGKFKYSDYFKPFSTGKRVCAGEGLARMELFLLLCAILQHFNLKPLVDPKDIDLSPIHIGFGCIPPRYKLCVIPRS
T2 sequence (Q12809 whole entry): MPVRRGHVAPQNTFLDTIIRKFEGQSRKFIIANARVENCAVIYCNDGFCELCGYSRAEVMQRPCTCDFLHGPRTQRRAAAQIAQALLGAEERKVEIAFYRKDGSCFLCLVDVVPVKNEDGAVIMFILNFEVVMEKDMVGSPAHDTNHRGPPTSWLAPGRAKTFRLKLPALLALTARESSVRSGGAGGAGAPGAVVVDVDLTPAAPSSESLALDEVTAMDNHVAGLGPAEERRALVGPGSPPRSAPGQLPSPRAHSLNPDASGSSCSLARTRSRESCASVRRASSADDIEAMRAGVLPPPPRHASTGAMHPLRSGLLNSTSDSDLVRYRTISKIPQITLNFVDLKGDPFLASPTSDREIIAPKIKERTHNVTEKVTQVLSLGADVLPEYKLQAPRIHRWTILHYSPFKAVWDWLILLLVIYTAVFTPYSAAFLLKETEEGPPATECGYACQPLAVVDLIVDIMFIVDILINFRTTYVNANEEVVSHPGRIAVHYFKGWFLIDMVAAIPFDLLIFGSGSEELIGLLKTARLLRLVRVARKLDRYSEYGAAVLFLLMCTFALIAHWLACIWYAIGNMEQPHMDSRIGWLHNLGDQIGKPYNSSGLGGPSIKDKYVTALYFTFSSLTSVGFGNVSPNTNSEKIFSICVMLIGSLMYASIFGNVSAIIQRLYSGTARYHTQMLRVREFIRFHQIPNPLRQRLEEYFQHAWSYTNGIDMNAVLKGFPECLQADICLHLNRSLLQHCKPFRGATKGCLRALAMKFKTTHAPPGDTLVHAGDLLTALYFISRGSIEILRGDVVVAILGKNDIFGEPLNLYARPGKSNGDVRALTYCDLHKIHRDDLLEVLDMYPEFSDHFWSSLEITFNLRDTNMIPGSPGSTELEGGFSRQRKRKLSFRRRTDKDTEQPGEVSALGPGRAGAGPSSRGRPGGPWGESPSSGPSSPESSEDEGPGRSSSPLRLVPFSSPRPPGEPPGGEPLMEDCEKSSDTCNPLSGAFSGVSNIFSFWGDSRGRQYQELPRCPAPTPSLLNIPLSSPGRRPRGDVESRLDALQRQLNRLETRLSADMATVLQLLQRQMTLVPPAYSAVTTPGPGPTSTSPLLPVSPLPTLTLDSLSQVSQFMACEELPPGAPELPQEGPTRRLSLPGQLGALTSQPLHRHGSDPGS
T1 sequence (P08581 25-1390): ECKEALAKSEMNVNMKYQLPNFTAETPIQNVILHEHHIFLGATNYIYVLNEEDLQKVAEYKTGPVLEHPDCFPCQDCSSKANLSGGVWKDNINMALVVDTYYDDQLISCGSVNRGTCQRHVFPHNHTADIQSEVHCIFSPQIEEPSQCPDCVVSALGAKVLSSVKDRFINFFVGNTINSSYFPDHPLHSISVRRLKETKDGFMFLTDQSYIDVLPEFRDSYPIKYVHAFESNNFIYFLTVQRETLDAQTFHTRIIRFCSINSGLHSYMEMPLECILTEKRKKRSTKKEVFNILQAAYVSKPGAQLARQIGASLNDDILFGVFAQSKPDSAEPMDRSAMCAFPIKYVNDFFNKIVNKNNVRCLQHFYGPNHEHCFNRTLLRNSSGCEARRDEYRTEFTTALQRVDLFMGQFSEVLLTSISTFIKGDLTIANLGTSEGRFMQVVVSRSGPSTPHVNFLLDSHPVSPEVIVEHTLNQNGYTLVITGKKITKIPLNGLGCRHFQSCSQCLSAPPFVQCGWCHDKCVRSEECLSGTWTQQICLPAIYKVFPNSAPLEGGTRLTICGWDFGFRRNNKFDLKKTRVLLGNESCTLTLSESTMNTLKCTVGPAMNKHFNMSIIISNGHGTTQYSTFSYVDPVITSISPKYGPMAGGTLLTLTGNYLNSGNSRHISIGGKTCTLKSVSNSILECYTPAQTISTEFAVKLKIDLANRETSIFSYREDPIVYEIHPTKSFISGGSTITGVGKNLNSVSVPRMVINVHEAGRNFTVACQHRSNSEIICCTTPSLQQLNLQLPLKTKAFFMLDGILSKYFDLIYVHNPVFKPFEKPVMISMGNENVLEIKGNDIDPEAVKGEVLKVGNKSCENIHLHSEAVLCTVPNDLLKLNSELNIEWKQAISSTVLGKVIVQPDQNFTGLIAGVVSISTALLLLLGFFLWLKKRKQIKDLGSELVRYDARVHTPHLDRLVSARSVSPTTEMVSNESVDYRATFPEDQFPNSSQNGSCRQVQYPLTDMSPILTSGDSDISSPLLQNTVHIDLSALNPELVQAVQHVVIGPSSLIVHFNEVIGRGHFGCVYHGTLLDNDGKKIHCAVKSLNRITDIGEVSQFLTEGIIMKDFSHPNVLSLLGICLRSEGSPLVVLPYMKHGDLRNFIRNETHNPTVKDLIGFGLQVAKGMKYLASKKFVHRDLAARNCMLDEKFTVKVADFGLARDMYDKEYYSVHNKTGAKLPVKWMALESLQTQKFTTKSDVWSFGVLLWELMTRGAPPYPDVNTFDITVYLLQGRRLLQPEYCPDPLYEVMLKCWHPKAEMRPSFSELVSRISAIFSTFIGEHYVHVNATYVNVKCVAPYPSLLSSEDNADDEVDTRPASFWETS

solubility at 4 day ([1]; organic solvent or mixture, solvent 2-Methyl THF): 9.03 mg/mL (≈ 25 mM)
solubility at 4 day ([1]; organic solvent or mixture, solvent Acetone): 14.3 mg/mL (≈ 39.5 mM)
solubility at 4 day ([1]; organic solvent or mixture, solvent Acetonitrile): 9.76 mg/mL (≈ 27 mM)
solubility at 4 day ([1]; organic solvent or mixture, solvent Benzyl Alcohol): 362 mg/mL (≈ 1000 mM)
solubility at 4 day ([1]; organic solvent or mixture, solvent Cumene): 2.52 mg/mL (≈ 6.97 mM)
solubility at 4 day ([1]; organic solvent or mixture, solvent DCM): 116 mg/mL (≈ 322 mM)
solubility at 4 day ([1]; organic solvent or mixture, solvent DME): 16.1 mg/mL (≈ 44.4 mM)
solubility at 4 day ([1]; organic solvent or mixture, solvent DMSO): 67.7 mg/mL (≈ 187 mM)
solubility at 4 day ([1]; organic solvent or mixture, solvent Diiodomethane): 81 mg/mL (≈ 224 mM)
solubility at 4 day ([1]; organic solvent or mixture, solvent Dioxane): 36.8 mg/mL (≈ 102 mM)
solubility at 4 day ([1]; organic solvent or mixture, solvent EtOAc): 7.24 mg/mL (≈ 20 mM)
solubility at 4 day ([1]; organic solvent or mixture, solvent Ethanol): 42.1 mg/mL (≈ 116 mM)
solubility at 4 day ([1]; organic solvent or mixture, solvent Ethylene Glycol): 35.3 mg/mL (≈ 97.8 mM)
solubility at 4 day ([1]; organic solvent or mixture, solvent Glycerol): 0.69 mg/mL (≈ 1.91 mM)
solubility at 4 day ([1]; organic solvent or mixture, solvent IPA): 7.92 mg/mL (≈ 21.9 mM)
solubility at 4 day ([1]; organic solvent or mixture, solvent MEK): 14.2 mg/mL (≈ 39.4 mM)
solubility at 4 day ([1]; organic solvent or mixture, solvent MTBE): 0.3 mg/mL (≈ 0.83 mM)
solubility at 4 day ([1]; organic solvent or mixture, solvent Methanol): 41 mg/mL (≈ 114 mM)
solubility at 4 day ([1]; organic solvent or mixture, solvent Nitromethane): 44.4 mg/mL (≈ 123 mM)
solubility at 4 day ([1]; solvent water): 0.15 mg/mL (≈ 0.415 mM)
IC50 (c-Met): 0.023 µM
% remaining +/− SDEV (CYP1A2; compound at 1 μM): 113 +/− 7.2% and 79 +/− 9.6%
% remaining +/− SDEV (CYP1A2; compound at 10 μM): 96.7 +/− 4.3% and 86 +/− 7.8%
% remaining +/− SDEV (CYP2B6; compound at 1 μM): 93 +/− 5.4% and 91.7 +/− 10.4%
% remaining +/− SDEV (CYP2B6; compound at 10 μM): 99 +/− 4.8% and 101 +/− 1.4%
% remaining +/− SDEV (CYP2C19; [2]): 40.3 +/− 2.2% and 34 +/− 3.3%
% remaining +/− SDEV (CYP2C9; compound at 1 μM): 128 +/− 22.5% and 96 +/− 2.2%
% remaining +/− SDEV (CYP2C9; compound at 10 μM): 101 +/− 4.4% and 101 +/− 8.5%
% remaining +/− SDEV (CYP2D6; compound at 1 μM): 102 +/− 3.6% and 125 +/− 44.2%
% remaining +/− SDEV (CYP2D6; compound at 10 μM): 94.7 +/− 4.4% and 130 +/− 11%
% remaining +/− SDEV (CYP2E1; compound at 1 μM): 109 +/− 19% and 164 +/− 54.8%
% remaining +/− SDEV (CYP2E1; compound at 10 μM): 109 +/− 5.6% and 111 +/− 1.1%
% remaining +/− SDEV (CYP3A4; [2]): 31.8 +/− 2.1% and 56 +/− 14%
Structure (SMILES): C[C@@H](c1ccc2ncccc2c1)c1nnc2sc(-c3cnn(C)c3)nn12 [Compound 1, 6-((S)-1-(6-(1-methyl-1H-pyrazol-4-yl)-[1,2,4]triazolo[3,4-b][1,3,4]thiadiazol-3-yl)ethyl)quinoline]
IC50 (hERG): 110 µM
Metabolism by the CYP isoform, in words (CYP2C19; summary of Table 4): metabolized by both CYP2C19 and CYP3A4 isoforms
Metabolism by the CYP isoform, in words (CYP3A4; summary of Table 4): metabolized by both CYP2C19 and CYP3A4 isoforms
